# Laboratory results published in patent US20170020909A1, “METHODS OF TREATING GLAUCOMA USING AMP-ACTIVATED PROTEIN KINASE (AMPK) ACTIVATORS” (Massachusetts Eye and Ear Infirmary, priority 2014, published 2017).
# Assays:
# collagen I = test: Immunoblot of collagen I in conditioned media of human TM cells; assay type: cell-based; details: 24 hours
# Procedure: (§1) FIGS. 5A-E. AICAR suppresses ECM proteins in primary human TM cells under basal and TGF-β2 stimulatory conditions. (A) Representative immunoblots of ECM proteins from conditioned media (CM) of human TM cells treated for 24 hours with PBS vehicle or 0.5 mM AICAR and (B) integrated band intensities calculated from those immunoblots. (C) Representative immunoblots of ECM proteins from CM of human TM cells under stimulation with 2.5 ng/mL TGF-β2. Cells were pre-incubated for 1 hour with PBS or 0.5 mM AICAR prior to full 24-hour treatment. (D) Mean integrated band intensities. Data in panels B and D are expressed as mean±SEM (*p<0.05 vs. PBS vehicle by student t-test; n=5-7). (E) Representative 10% acrylamide gels stained with Coomassie Brilliant Blue as a loading control. […]
# (§2) At the conclusion of each experiment for matricellular and ECM protein detection, conditioned media (CM) from TM cell cultures was harvested and centrifuged at 5000 rpm for 10 minutes at 4° C. The supernatant was then concentrated (Amicon Ultra-4 Filter Unit, 10 kDa; Millipore, Milford, Mass.), and protein content quantified using the DC Protein Assay kit adhering to manufacturer's protocols (Bio-Rad, Hercules, Calif.). […] Samples were then centrifuged at 14,000 rpm for 15 minutes at 4° C. and protein content quantified. […]
# TSP-1 = test: Immunoblot of TSP-1 in conditioned media of human TM cells; assay type: cell-based; details: 24 hours
# Procedure: as §1, §2
# [1] = 0.5 mM AICAR vs PBS vehicle, basal
# [2] = 0.5 mM AICAR, under TGF-β2 stimulation with 2.5 ng/mL
compound,measurement,setting,value
"NC(=O)c1ncn([C@@H]2O[C@H](CO)[C@@H](O)[C@H]2O)c1N [AICAR, 5-Aminoimidazole-4-carboxamide riboside]",decrease in collagen I (mean integrated band intensity),collagen I; [1],70%
same,decrease in collagen I level,collagen I; [2],26%
same,change in TSP-1 (mean integrated band intensity),TSP-1; [1],no change
same,change in TSP-1 levels,TSP-1; [2],no change
